Test results published in PubChem BioAssay (NCI).
Where “and” joins values, the source holds several entries; their conditions need not be identical. Equal entries are not always repeated.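 Tested at 5 concentrations; 48 h exposure; 96-well plates; endpoints linearly interpolated, else capped at highest concentration. GI50: concentration for 50% inhibition of growth. TGI is the concentration that stops growth completely.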 Calls of active or inactive are those of the source. Cut-off read from the data, not from the text of the source: active = GI50 below about 0.43 µM; inactive = the rest.

Columns and labels:
Assay in all cases: growth of human tumour cells (NCI), 48 h
RXF-631 renal = system: RXF-631 renal
DMS 273 small cell lung = system: DMS 273 small cell lung
KM20L2 colon = system: KM20L2 colon
DLD-1 colon = system: DLD-1 colon
SNB-78 CNS = system: SNB-78 CNS
DU-145 prostate = system: DU-145 prostate
T-47D breast = system: T-47D breast
BT-549 breast = system: BT-549 breast
MDA-N = system: MDA-N
SN12K1 renal = system: SN12K1 renal

Question: Which results are given for `COc1cc2c(cc1OC)/C(=C\c1ccccc1N)C(=O)OC2`?
Answer: TGI (RXF-631 renal): 23.5 µM; TGI (DMS 273 small cell lung): 25.5 µM; TGI (KM20L2 colon): 43.4 µM; TGI (DLD-1 colon): 29.3 µM

Question: With `CC(=O)OCC1OC(n2c(-c3ccc(C)cc3)cc(-c3ccccc3)c(C#N)c2=O)C(OC(C)=O)C(OC(C)=O)C1OC(C)=O` (stereo unspecified) as the compound, how does the TGI (RXF-631 renal) read?
Answer: > 100 µM

Question: What about the TGI (SNB-78 CNS) of the same compound?
Answer: > 100 µM

Question: What about the TGI (KM20L2 colon) of the same compound?
Answer: > 100 µM

Question: What about the TGI (DLD-1 colon) of the same compound?
Answer: > 100 µM

Question: Which outcome (RXF-631 renal) does the source give for `COC(C)(C)C/C=C/C(C)=C/C=C/C(C)=C\C=C\C(C)=C\C=C\C=C(C)\C=C\C=C(C)\C=C\C=C(C)\C=C\CC(C)(C)OC` here?
Answer: inactive

Question: What about the GI50 (DMS 273 small cell lung) of the same compound?
Answer: > 150 µg/mL

Question: And the TGI (DMS 273 small cell lung)?
Answer: > 150 µg/mL

Question: What about the outcome (KM20L2 colon) of the same compound?
Answer: inactive

Question: And the GI50 (DLD-1 colon)?
Answer: > 150 µg/mL

Question: What about the TGI (DLD-1 colon) of the same compound?
Answer: > 150 µg/mL

Question: Which results are given for `Cc1cc(C)c(-n2c(-c3ccc(Br)cc3)cs/c2=N\N=C2C=C(C(C)(C)C)C(=O)C(C(C)(C)C)=C2)c(C)c1`?
Answer: TGI (DU-145 prostate): > 100 µM; TGI (T-47D breast): > 100 µM; TGI (RXF-631 renal): > 100 µM; TGI (BT-549 breast): > 100 µM; TGI (DMS 273 small cell lung): > 100 µM; TGI (MDA-N): > 100 µM; TGI (SNB-78 CNS): > 100 µM; TGI (KM20L2 colon): > 100 µM; TGI (DLD-1 colon): > 100 µM

Question: `COc1ccc(OCC(=O)O)c(C(=O)CCC(=O)O)c1` was tested. Which TGI (RXF-631 renal) did it give?
Answer: > 100 µM

Question: And the TGI (DMS 273 small cell lung)?
Answer: > 100 µM

Question: And the TGI (SNB-78 CNS)?
Answer: > 100 µM

Question: And the TGI (DLD-1 colon)?
Answer: > 100 µM

Question: `Cc1cc(Cl)ccc1NC(=O)CC1SC(=Nc2ccccc2Cl)NC1=O` (stereo unspecified) was tested. Which TGI (RXF-631 renal) did it give?
Answer: > 100 µM

Question: And the TGI (DMS 273 small cell lung)?
Answer: > 100 µM

Question: What about the TGI (SNB-78 CNS) of the same compound?
Answer: > 100 µM

Question: And the TGI (KM20L2 colon)?
Answer: 88.2 µM

Question: What about the TGI (DLD-1 colon) of the same compound?
Answer: > 100 µM

Question: What does the source list for `CN(C)c1ccc(/C=c2\sc3nc4ccccc4n3c2=O)cc1`?
Answer: TGI (RXF-631 renal): > 100 µM; TGI (DMS 273 small cell lung): > 100 µM; TGI (SNB-78 CNS): > 100 µM; TGI (KM20L2 colon): > 100 µM; TGI (DLD-1 colon): > 100 µM

Question: With `Cc1cccc(C)c1NC(=O)C(=O)Nn1c(NN)nc2ccccc2c1=O` as the compound, how does the TGI (RXF-631 renal) read?
Answer: > 100 µM

Question: And the TGI (DMS 273 small cell lung)?
Answer: > 100 µM

Question: And the TGI (SNB-78 CNS)?
Answer: > 100 µM

Question: And the TGI (KM20L2 colon)?
Answer: > 100 µM

Question: Which results are given for `CC1OC(n2cc(F)c(=O)[nH]c2=O)C=CC1=O` (stereo unspecified)?
Answer: TGI (RXF-631 renal): > 100 µM; TGI (DMS 273 small cell lung): 36.1 µM; TGI (SNB-78 CNS): 37.1 µM; TGI (KM20L2 colon): 34.6 µM; TGI (DLD-1 colon): 36 µM

Question: How did the TGI (RXF-631 renal) turn out when `O=Cc1c(O)c(C(=O)Nc2ccc3[nH]c(=O)[nH]c3c2)cc2ccccc12` was run?
Answer: > 100 µM

Question: What about the TGI (DMS 273 small cell lung) of the same compound?
Answer: > 100 µM

Question: What about the TGI (SNB-78 CNS) of the same compound?
Answer: > 100 µM

Question: And the TGI (KM20L2 colon)?
Answer: > 100 µM

Question: And the TGI (DLD-1 colon)?
Answer: > 100 µM

Question: How did the TGI (RXF-631 renal) turn out when `CCN(CC)c1ccc(N=Nc2ccc(-c3nc4ccc[n+](C)c4o3)cc2)cc1` was run?
Answer: > 100 µM

Question: What about the TGI (DMS 273 small cell lung) of the same compound?
Answer: 23.3 µM

Question: And the TGI (SNB-78 CNS)?
Answer: 32.6 µM

Question: And the TGI (KM20L2 colon)?
Answer: 25.9 µM

Question: And the TGI (DLD-1 colon)?
Answer: 20.1 µM

Question: How did the GI50 (DU-145 prostate) turn out when `NCCCNCCCCNC(=O)C(O)NC(=O)CCCCCCN=C(N)N` (stereo unspecified) was run?
Answer: 2890 µM

Question: What about the TGI (DU-145 prostate) of the same compound?
Answer: > 5000 µM

Question: What about the GI50 (T-47D breast) of the same compound?
Answer: 2130 µM

Question: And the TGI (T-47D breast)?
Answer: > 5000 µM

Question: What about the GI50 (BT-549 breast) of the same compound?
Answer: 1540 µM

Question: What about the TGI (BT-549 breast) of the same compound?
Answer: 750 µM and 4950 µM

Question: And the TGI (DMS 273 small cell lung)?
Answer: > 750 µM

Question: And the GI50 (MDA-N)?
Answer: > 750 µM

Question: What about the TGI (MDA-N) of the same compound?
Answer: > 5000 µM

Question: What about the TGI (SNB-78 CNS) of the same compound?
Answer: > 750 µM

Question: What about the TGI (KM20L2 colon) of the same compound?
Answer: 734 µM

Question: What about the TGI (DLD-1 colon) of the same compound?
Answer: 750 µM

Question: And the TGI (SN12K1 renal)?
Answer: 750 µM

Question: What does the source list for `NC(N)=NS(=O)(=O)c1ccc(NCCc2c3ccccc3nc3ccccc23)cc1`?
Answer: TGI (RXF-631 renal): > 100 µM; TGI (DMS 273 small cell lung): > 100 µM; TGI (KM20L2 colon): > 100 µM; TGI (DLD-1 colon): > 100 µM

Question: Which TGI (RXF-631 renal) does the source give for `COc1ccc(C2ON(c3cccc(C)n3)CC=C2C)cc1` (stereo unspecified) here?
Answer: > 100 µM

Question: And the TGI (DMS 273 small cell lung)?
Answer: > 100 µM

Question: What about the TGI (SNB-78 CNS) of the same compound?
Answer: > 100 µM

Question: What about the TGI (KM20L2 colon) of the same compound?
Answer: > 100 µM

Question: And the TGI (DLD-1 colon)?
Answer: > 100 µM

Question: With `Cc1cc2c(C)nn(Cc3ccc(Cl)cc3)c2c(C#N)c1C` as the compound, how does the TGI (RXF-631 renal) read?
Answer: > 100 µM

Question: And the TGI (DMS 273 small cell lung)?
Answer: > 100 µM

Question: And the TGI (SNB-78 CNS)?
Answer: > 100 µM

Question: What about the TGI (KM20L2 colon) of the same compound?
Answer: > 100 µM

Question: Which TGI (RXF-631 renal) does the source give for `CN(C)CC/[N+]([O-])=C(/c1ccccc1)C12CC3CC(CC(C3)C1)C2` here?
Answer: 32.8 µM

Question: And the TGI (SNB-78 CNS)?
Answer: 41.8 µM

Question: And the TGI (KM20L2 colon)?
Answer: 24.5 µM

Question: And the TGI (DLD-1 colon)?
Answer: 32 µM

Question: Which results are given for `O=C(O)CCc1nn2c(nc1=O)sc1ccc3ccccc3c12`?
Answer: TGI (RXF-631 renal): > 100 µM; TGI (DMS 273 small cell lung): > 100 µM; TGI (SNB-78 CNS): > 100 µM; TGI (KM20L2 colon): > 100 µM; TGI (DLD-1 colon): > 100 µM

Question: Which TGI (RXF-631 renal) does the source give for `CCCSS[C@H]1NC(=O)[C@H]1NC(=O)COc1ccccc1` here?
Answer: 31.6 µM

Question: What about the TGI (DMS 273 small cell lung) of the same compound?
Answer: 31.2 µM

Question: What about the TGI (SNB-78 CNS) of the same compound?
Answer: 60.6 µM

Question: And the TGI (KM20L2 colon)?
Answer: 42.4 µM

Question: What about the TGI (DLD-1 colon) of the same compound?
Answer: 23.2 µM
